Biological target: Histamine H3 receptor (Macaca mulatta, UniProt G7N499)
Test: Radioligand Binding Assay
Text: The compounds of this invention have been demonstrated to displace [3H]- methylhistamine radioligand binding to mammalian cell membranes expressing rhesus (Macacca Mulatta) H3 receptor. Additionally, the compounds of this invention have been demonstrated by GTPγS radioligand binding assay to inhibit rhesus H3 constitutive functional activity in cell membranes.

Sequence of Histamine H3 receptor (G7N499 whole entry): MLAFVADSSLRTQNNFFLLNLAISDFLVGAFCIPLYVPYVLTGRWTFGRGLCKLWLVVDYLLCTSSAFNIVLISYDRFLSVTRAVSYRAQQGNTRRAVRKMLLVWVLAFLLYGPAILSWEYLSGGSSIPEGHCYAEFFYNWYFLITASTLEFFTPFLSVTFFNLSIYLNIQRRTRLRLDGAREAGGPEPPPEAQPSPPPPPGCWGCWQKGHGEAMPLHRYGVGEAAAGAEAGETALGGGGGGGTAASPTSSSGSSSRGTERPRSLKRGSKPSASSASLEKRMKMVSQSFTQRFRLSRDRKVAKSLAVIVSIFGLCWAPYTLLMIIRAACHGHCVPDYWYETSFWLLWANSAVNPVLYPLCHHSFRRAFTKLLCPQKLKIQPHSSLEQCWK

C[C@H]1CCCN1C1CCN(c2ccc(N3CCC4(CCN(C(=O)OC(C)(C)C)CC4)C3=O)c(F)c2)CC1 [US8604046, 79]
Ki: 300 pM

— BindingDB's records for patent US8604046 (Sanofi, 2013)
